According to ChEMBL document CHEMBL1123826, “Nitrogen bridgehead compounds. 66. Bronchodilator nitrogen bridgehead compounds with a pyrimidinone moiety” (J Med Chem, 1987):
pIC50: −log10 of the molar value.

How the values were obtained:
Assay type in all cases: functional
Cavia porcellus [1] = species on record: Cavia porcellus; experiment: Bronchodilator activity against acetylcholine-induced spasm in guinea pig; settings: read-out: ID50 (the source's name)
Cavia porcellus [2] = species on record: Cavia porcellus; experiment: Bronchodilator activity against histamine-induced spasm in guinea pig; settings: read-out: ID50 (the source's name)
Cavia porcellus [3] = species on record: Cavia porcellus; experiment: Bronchodilator activity against serotonin-induced spasm in guinea pig; settings: read-out: ID50 (the source's name)
Homo sapiens = species on record: Homo sapiens; experiment: Compound was tested for Bronchodilator activity against isolated human bronchus contracted by carbachol
[4] = Relative potency is ratio of IC50 of theophylline / IC50 was determined

| Structure (SMILES) | ED50 (Cavia porcellus [1]) [µmol/kg] | ED50 (Cavia porcellus [2]) [µmol/kg] | ED50 (Cavia porcellus [3]) [µmol/kg] | IC50 (Homo sapiens) [uM l-1] | Relative potency [4] | pIC50 (Homo sapiens; Homo sapiens, Bronchus, read-out: IC50) |
| --- | --- | --- | --- | --- | --- | --- |
| Cc1cccn2c(=O)c3c(nc12)CCCCCC3 | 42.6 | 23.8 | 14.3 |  |  |  |
| Cc1ccc2nc3c(c(=O)n2c1)CCCC3 | 32 | 15.6 | 20.4 |  |  |  |
| O=c1c2c(nc3n1CCC3)CCC2 | > 100 | 46.1 | 82.5 |  |  |  |
| O=c1c2ccccc2nc2n1CCC2 | 37.7 | 16.9 | 21.2 |  |  |  |
| O=c1c2ccccc2nc2n1CCCC2 | 31.1 | 11.1 | 15.2 |  |  |  |
| CC1CCc2nc3c(c(=O)n21)CCCC3 (stereo unspecified) | 74.6 | 19.7 | 46.8 |  |  |  |
| O=c1c2c(nc3n1CCC3)CCCCC2 | 38.5 | 27.6 | 33 |  |  |  |
| O=c1c2c(nc3n1CCCCC3)CCCC2 |  | 3 | 3 |  |  |  |
| O=C(O)c1ccc2nc3n(c(=O)c2c1)CCCCC3 | > 100 | > 100 | > 100 |  |  |  |
| O=C(O)c1ccc2c(=O)n3c(nc2c1)CCC3 | > 100 | > 100 | > 100 |  |  |  |
| CCc1c(C)nc2cc(C)ccn2c1=O | 36.7 | 20.9 | 29.7 |  |  |  |
| Cl.O=c1c2c(nc3ccccn13)CCC2 | 32.4 | 10.5 | 17.6 | 879 | 0.17 |  |
| Cc1ccn2c(=O)c3c(nc2c1)CCCC3 | 37.7 | 20.4 | 21.9 |  |  |  |
| O=c1c2c(nc3n1CCC3)CCCC2 | 51.1 | 24.1 | 29.8 |  |  |  |
| CC1CCCn2c1nc1c(c2=O)CCCC1 (stereo unspecified) | 47.1 | 19.8 | 36.2 |  |  |  |
| CCOC(=O)c1ccc2c(=O)n3c(nc2c1)CCC3 | > 32 | 14.4 | > 32 |  |  |  |

| Structure (SMILES) | ED50 (Cavia porcellus [1]) [µmol/kg] | ED50 (Cavia porcellus [2]) [µmol/kg] | ED50 (Cavia porcellus [3]) [µmol/kg] | IC50 (Homo sapiens) [uM l-1] | Relative potency [4] | pIC50 (Homo sapiens; Homo sapiens, Bronchus, read-out: IC50) |
| --- | --- | --- | --- | --- | --- | --- |
| O=C(O)c1ccc2c(=O)n3c(nc2c1)CCCCC3 | > 100 | > 100 | > 100 |  |  |  |
| O=c1c2c(nc3n1CCCC3)CCCCC2 | 11.8 | 15.2 | 12.7 |  |  |  |
| CC1CCCn2c1nc1c(c2=O)CCC1 (stereo unspecified) | 12.8 | 11.5 | 7.7 |  |  |  |
| O=c1nc2n(c3c1CCCC3)CCCCC2 | > 32 | > 32 | 55.1 |  |  |  |
| CCc1c(C)nc2cccc(C)n2c1=O | 25.6 | 10.2 | 9.6 |  | 2.1 | 4.14 |
| Cc1ccc2nc3n(c(=O)c2c1)CCC3 | 29 | 29.8 | 11.3 |  |  |  |
| CC1CCc2nc3c(c(=O)n2C1)CCC3 (stereo unspecified) | 17.6 | 7.2 | 39.6 |  |  |  |
| CC1CCCc2nc3ccccc3c(=O)n21 (stereo unspecified) | > 100 | 27 | 30.2 |  |  |  |
| O=C(O)c1ccc2nc3n(c(=O)c2c1)CCCC3 | > 100 | > 100 | > 100 |  |  |  |
| O=c1c2c(nc3ccccn13)CCCCCC2 | 53.3 | 32.7 | 49 |  |  |  |
| Cc1ccc2c(=O)n3c(nc2c1)CCCCC3 | 76 | 25.6 | 39.4 |  |  |  |
| CC1CCCc2nc3c(c(=O)n21)CCC3 (stereo unspecified) | 18.2 | 11.7 | 13.8 |  |  |  |
| Cc1cccc2nc3c(c(=O)n12)CCCC3 | 10 | 9.7 | 6.1 |  |  |  |
| O=c1c2c(nc3n1CCCC3)CCCC2 | 44.5 | 22 | 33.3 |  |  |  |
| O=c1c2c(nc3n1CCCCC3)CCCCC2 | 7.2 | 33.8 | 30.8 |  |  |  |
